Experimental findings from US11891386B2, “Indole compounds and their use” (ARIAGEN, INC., priority 2017, dated 2024) are described below.

Format in all cases: in vitro ADME
The nature of data set [1]: Hepatocyte intrinsic clearance assay, human hepatocytes. As to conditions: male, cryopreserved pooled human hepatocytes; Human Hepatocytes, 1 μM test compound. From the text:
(§1) The liver is an important organ in the body for drug metabolism. This Example describes hepatocyte intrinsic clearance assays using both human and mouse hepatocytes to evaluate the metabolic stability of the indole compounds disclosed herein. The parameters measured include t1/2 (half-life), CLint (intrinsic clearance), and EH (hepatic extraction ratio).
(§2) Testosterone (Lot FE111011-01) was obtained from Cerilliant (Round Rock, TX). 7-hydroxycoumarin (Lot 11631ED) was obtained from Sigma Aldrich (St. Louis, MO). Cryopreserved human hepatocytes pooled from ten donor males (X008001), cryopreserved male IRC/CD-1 mouse hepatocytes (M005052), INVITROGRO HI Medium (incubation), and INVITROGRO HT Medium (thawing) were obtained from Bioreclamation IVT (Baltimore, MD). All solvents were obtained from commercial sources and used without further purification.
(§3) Each test compound was prepared as a 1 mM stock solution in DMSO. A 2 μM solution of test compound and positive controls were prepared in INVITROGRO HI Medium (incubation). These solutions were pre-warmed in a sterile incubator set to maintain 37° C., 5% CO2, and 98% humidity. Cryopreserved hepatocytes were prepared at a concentration of 2×10^6 living cells/mL in incubation media and pre-warmed in the incubator. The compound solutions and hepatocyte mixtures were then combined at a ratio of 1:1 (v:v). The final volume of the reaction mixture was 750 μL, containing 1 μM test compound (10 μM for 7-hydroxycoumarin) and […]. The reaction mixture was placed in the incubator on a plate shaker. After 0, 15, 30, 60, 90, and 120 minutes of incubation, 100 μL of reaction mixtures were removed from the incubation plate and mixed with 150 μL of ice-cold acetonitrile in a designated well of a 96-well crash plate. The 96-well crash plate was placed on ice for 15 min, and samples were centrifuged (3,600 RPM, 10 min, 4° C.) to precipitate protein. The supernatants were diluted 1:1 (v:v) with water containing 0.15 μM verapamil and/or 1 μM tolbutamide (internal standards for positive and negative modes, respectively) in a 96-well shallow injection plate. This plate was sealed for LC-MS analysis. All measurements were done in duplicate.
(§4) The residual compound remaining (% R) was determined from LC-MS peak areas by comparison to the zero time point. Metabolic half-life (t1/2) and intrinsic clearance (CLint) values were calculated from the slope of the plot of ln (% R) vs. time and the concentration of hepatocytes present in the incubation. Percent remaining at 60 minutes was calculated by plugging in the 60 minute value into the slope equation generated by the percent remaining time points.
(§5) In vivo hepatic clearance CLH was calculated using the well stirred liver model according to the following equation:
(§6) [formula] where QH is the total liver blood flow, fu is unbound fraction of the drug, and CL′int is defined as follows: CL′int=CLint×(10^6 cells/g of liver weight)×(g liver weight/kg of body weight). In the first approximation, used in this study, fu=1.
(§7) Hepatic extraction ratio EH was calculated using the following equation:
(§8) [formula] Corresponding physiological parameters used in calculations for all species are shown below in Table 5.

Another data set has as its system human hepatocytes. The description is as above. Particulars: for CLint (μL/min/10^6 ells) / EH (%) hepatic extraction ratio: Human Hepatocytes; for CLint (μL/min/10^6 ells): 1 μM test compound; for EH (%) hepatic extraction ratio: well stirred liver model, fu=1; for clearance / metabolic profile, in words: human hepatocytes.
Description: as §1, §2, §3, §4, §5, §6, §7, §8

Data set [2] in a line: Hepatocyte intrinsic clearance assay, mouse hepatocytes. Particulars: male, IRC/CD-1, cryopreserved mouse hepatocytes; Mouse Hepatocytes, 1 μM test compound.
Description: as §1, §2, §3, §4, §5, §6, §7, §8

A further data set deals with mouse hepatocytes. The data set is described as above. As to conditions: for CLint (μL/min/10^6 ells) / EH (%) hepatic extraction ratio: Mouse Hepatocytes; for CLint (μL/min/10^6 ells): 1 μM test compound; for EH (%) hepatic extraction ratio: well stirred liver model, fu=1; for clearance / metabolic profile, in words: mouse hepatocytes.
Description: as §1, §2, §3, §4, §5, §6, §7, §8

Take `O=C(c1nc(-c2nnco2)cs1)c1c[nH]c2ccccc12` [ARI-056, (4-(1,3,4-oxadiazol-2-yl)thiazol-2-yl)(1H-indol-3-yl)methanone]: the half-life – broadly, the time in which the quantity being followed falls by half – at 1 μM stood at 0.653 h in data set [1] and 0.447 h in data set [2]. Also, the “CLint (μL/min/10^6 ells)” value in the data set on human hepatocytes is 17.7 μL/min/10^6 ells; in the data set on mouse hepatocytes, 25.8 μL/min/10^6 ells. Also, the “EH (%) hepatic extraction ratio” value came out at 68% in the data set with human hepatocytes and 60% in the data set with mouse hepatocytes.
For `Nc1nnc(-c2csc(C(=O)c3c[nH]c4ccccc34)n2)s1` [ARI-090, (4-(5-amino-1,3,4-thiadiazol-2-yl)thiazol-2-yl)(1H-indol-3-yl)methanone], the half-life at 1 μM stood at 2.19 h in data set [1] and 4.7 h in data set [2]. In addition, the “CLint (μL/min/10^6 ells)” value in the data set with human hepatocytes stood at 5.3 μL/min/10^6 ells; in the data set with mouse hepatocytes it was 2.5 μL/min/10^6 ells. Moreover, the “EH (%) hepatic extraction ratio” value was 39% in the data set with human hepatocytes and 13% in the data set with mouse hepatocytes.
Turning to `CNC(=O)c1csc(C(=O)c2c[nH]c3ccc(Cl)cc23)n1` [ARI-049, 2-(5-chloro-1H-indole-3-carbonyl)-N-methylthiazole-4-carboxamide], the half-life at 1 μM in data set [1] was 3.88 h; in data set [2], 1.59 h. Further, the “CLint (μL/min/10^6 ells)” value in the data set with human hepatocytes was 3.0 μL/min/10^6 ells; in the data set on mouse hepatocytes it was 7.3 μL/min/10^6 ells. Also, the entries for the “EH (%) hepatic extraction ratio” value in the data set on human hepatocytes and in the data set with mouse hepatocytes were 27% and 30%, respectively. Moreover, the “clearance / metabolic profile, in words” value with human hepatocytes was “lower clearance and EH value”; with mouse hepatocytes, “lower clearance and EH value”.
As for `Cc1nc(-c2csc(C(=O)c3c[nH]c4ccccc34)n2)no1` [ARI-030, (1H-indol-3-yl)(4-(5-methyl-1,2,4-oxadiazol-3-yl)thiazol-2-yl)methanone], the half-life at 1 μM in data set [1] is 6.31 h; in data set [2], 0.285 h. Also, the entries for the “CLint (μL/min/10^6 ells)” value in the data set with human hepatocytes and with mouse hepatocytes were 1.8 μL/min/10^6 ells and 40.5 μL/min/10^6 ells, respectively. For the same compound, the “EH (%) hepatic extraction ratio” value with human hepatocytes stood at 18%; with mouse hepatocytes it was 70%.
`Cc1noc(-c2csc(C(=O)c3c[nH]c4ccccc34)n2)n1` [ARI-031, (1H-indol-3-yl)(4-(3-methyl-1,2,4-oxadiazol-5-yl)thiazol-2-yl)methanone] yielded a half-life at 1 μM in data set [1] of 16.1 h. Further, in the data set with human hepatocytes, the “CLint (μL/min/10^6 ells)” value is recorded as 0.7 μL/min/10^6 ells; the “EH (%) hepatic extraction ratio” value turned out to be 8%; the “clearance / metabolic profile, in words” value is “low clearance”. Moreover, the half-life at 1 μM in data set [2] is 11.7 h. Further, in the data set with mouse hepatocytes, the “CLint (μL/min/10^6 ells)” value amounted to 1.0 μL/min/10^6 ells; the “EH (%) hepatic extraction ratio” value amounted to 6%; the “clearance / metabolic profile, in words” value was “low clearance”.
`CCC(=O)c1csc(C(=O)c2c[nH]c3ccc(Cl)cc23)n1` [ARI-067, 1-(2-(5-chloro-1H-indole-3-carbonyl)thiazol-4-yl)propan-1-one]: the half-life at 1 μM in data set [1] amounted to 5 h; in data set [2], 3.54 h. In addition, the “CLint (μL/min/10^6 ells)” value turned out to be 2.3 μL/min/10^6 ells in the data set with human hepatocytes and 3.3 μL/min/10^6 ells in the data set on mouse hepatocytes. Besides, the “EH (%) hepatic extraction ratio” value in the data set on human hepatocytes was 22%; in the data set with mouse hepatocytes it was 16%.
On to `Cc1nnc(-c2csc(C(=O)c3c[nH]c4ccccc34)n2)o1` [ARI-060, (1H-indol-3-yl)(4-(5-methyl-1,3,4-oxadiazol-2-yl)thiazol-2-yl)methanone], for which the half-life at 1 μM in data set [1] was 4.55 h; in data set [2], 2.3 h. Moreover, the “CLint (μL/min/10^6 ells)” value in the data set with human hepatocytes amounted to 2.5 μL/min/10^6 ells; with mouse hepatocytes it was 5.0 μL/min/10^6 ells. Further, the “EH (%) hepatic extraction ratio” value was determined as 24% with human hepatocytes and 23% with mouse hepatocytes.
Consider `CCC(=O)c1csc(C(=O)c2c[nH]c3cccc(F)c23)n1` [ARI-142, 1-(2-(4-fluoro-1H-indole-3-carbonyl)thiazol-4-yl)propan-1-one], for which the half-life at 1 μM in data set [1] was found to be 1.43 h; in data set [2] it was 1.1 h. For the same compound, the “CLint (μL/min/10^6 ells)” value worked out at 8.1 μL/min/10^6 ells with human hepatocytes and 11 μL/min/10^6 ells with mouse hepatocytes. Also, the “EH (%) hepatic extraction ratio” value in the data set with human hepatocytes is 50%; in the data set with mouse hepatocytes, 38%.
For `COC(=O)c1csc(C(=O)c2c[nH]c3ccccc23)n1` [ARI-001, ITE], the half-life at 1 μM in data set [1] stood at 0.13 h; in data set [2], 0.0917 h. Further, the “CLint (μL/min/10^6 ells)” value is 220.4 μL/min/10^6 ells with human hepatocytes and 585.7 μL/min/10^6 ells in the data set with mouse hepatocytes. Further, the results for the “EH (%) hepatic extraction ratio” value in the data set on human hepatocytes and in the data set with mouse hepatocytes were 91% and 87%, respectively.
As for `NCc1nnc(-c2csc(C(=O)c3c[nH]c4c(F)cccc34)n2)o1` [ARI-145, (4-(5-(aminomethyl)-1,3,4-oxadiazol-2-yl)thiazol-2-yl)(7-fluoro-1H-indol-3-yl)methanone], the half-life at 1 μM in data set [1] is 2.83 h; in data set [2], 2.27 h. Also, the “CLint (μL/min/10^6 ells)” value in the data set on human hepatocytes worked out at 4.1 μL/min/10^6 ells; in the data set with mouse hepatocytes it was 5.1 μL/min/10^6 ells. In addition, the “EH (%) hepatic extraction ratio” value with human hepatocytes worked out at 33%; in the data set with mouse hepatocytes, 23%.
For the compound `Nc1nnc(-c2csc(C(=O)c3c[nH]c4ccccc34)n2)o1` [ARI-083, (4-(5-amino-1,3,4-oxadiazol-2-yl)thiazol-2-yl)(1H-indol-3-yl)methanone], the half-life at 1 μM in data set [1] turned out to be 10.8 h. In the data set with human hepatocytes, the “CLint (μL/min/10^6 ells)” value was 1.1 μL/min/10^6 ells; the “EH (%) hepatic extraction ratio” value worked out at 12%; the “clearance / metabolic profile, in words” value was “lower clearance and hepatic extraction parameters than ARI-060”. The compound further displayed a half-life at 1 μM in data set [2] of 16.1 h. Further, in the data set with mouse hepatocytes, the “CLint (μL/min/10^6 ells)” value is 0.7 μL/min/10^6 ells; the “EH (%) hepatic extraction ratio” value is 4%; the “clearance / metabolic profile, in words” value was “lower clearance and hepatic extraction parameters than ARI-060”.
`CCC(=O)c1csc(C(=O)c2c[nH]c3c(F)cccc23)n1` [ARI-140, 1-(2-(7-fluoro-1H-indole-3-carbonyl)thiazol-4-yl)propan-1-one]: the half-life at 1 μM in data set [1] was found to be 3.33 h; in data set [2], 7.5 h. The results for the “CLint (μL/min/10^6 ells)” value in the data set on human hepatocytes and with mouse hepatocytes were 3.5 μL/min/10^6 ells and 1.5 μL/min/10^6 ells, respectively. The figures for the “EH (%) hepatic extraction ratio” value in the data set with human hepatocytes and in the data set with mouse hepatocytes were 30% and 8.3%, respectively.
As for `Nc1nnc(-c2csc(C(=O)c3c[nH]c4ccc(F)cc34)n2)o1` [ARI-148, (4-(5-amino-1,3,4-oxadiazol-2-yl)thiazol-2-yl)(5-fluoro-1H-indol-3-yl)methanone], the half-life at 1 μM in data set [1] stood at 4.7 h; in data set [2] it was 3.17 h. In addition, the entries for the “CLint (μL/min/10^6 ells)” value in the data set with human hepatocytes and with mouse hepatocytes were 2.5 μL/min/10^6 ells and 3.6 μL/min/10^6 ells, respectively. Further, the “EH (%) hepatic extraction ratio” value with human hepatocytes was found to be 23%; in the data set on mouse hepatocytes, 18%.
On to `CNC(=O)c1csc(C(=O)c2c[nH]c3ccccc23)n1` [ARI-004], for which the half-life at 1 μM in data set [1] was determined as 0.712 h; in data set [2], 0.0467 h. Further, the results for the “CLint (μL/min/10^6 ells)” value in the data set with human hepatocytes and in the data set on mouse hepatocytes were 40.2 μL/min/10^6 ells and 1,174.2 μL/min/10^6 ells, respectively. In addition, the “EH (%) hepatic extraction ratio” value with human hepatocytes is listed as 65%; in the data set with mouse hepatocytes, 93%.
